Experiments:
glaucoma patients [1] = assay: Clinical trial: effect of ophthalmic ointment comprising 0.01 % active substance on intraocular pressure (I.O.P.); details: human, in vivo
Experimental: (§1) The clinical tests on glaucoma patients were performed with an ophthalmic ointment comprising 0.01 % and 0.025 % of dihydro­ergotoxine methanesulfonate or bromocryptine methanesulfonate.
Effect of ophthalmic ointment comprising 0.01 % of dihydroer­gotoxine methanesulfonate or bromocryptine methanesulfonate on the intraocular pressure (I.O.P.) in glaucoma patients
The effect of the ophthalmic ointment comprising 0.01 % of dihydroergotoxine (as base and as methanesulfonate salt) and of bromocryptine methanesulfonate on the intraocular pressure in both eyes was tested in five male and three female glaucoma patients aged from 34 to 62 years.

glaucoma patients [2] = details: human, in vivo
Experimental: as §1
The effect of the ophthalmic ointment comprising 0.025 % of dihydroergotoxine methanesulfonate or bromocryptine methane­sulfonate on the intraocular pressure in both eyes was tested in four male and three female glaucoma patients, agend from 31 to 64 years.
The ointment was applied into the conjunctival sac in the morning and in the evening. Before application, the I.O.P. was measured. This procedure was repeated for five days.

## CC(C)C[C@H]1C(=O)N2CCC[C@H]2[C@]2(O)O[C@](NC(=O)[C@@H]3C=C4c5cccc6[nH]c(Br)c(c56)C[C@H]4N(C)C3)(C(C)C)C(=O)N12 [bromocryptine methanesulfonate]
Glaucoma patients [1]
  maximum reduction of I.O.P.: 21%
  time for which the effect (reduction of I.O.P.) was present: at least five
Glaucoma patients [2]
  I.O.P. from which it decreased: 4.00 kPa
  I.O.P. to which it decreased: 2.67 kPa
  reduction of intraocular pressure: 30%
  undesired side effects: No undesired side effects

Source: patent publication EP0342396A1, “Ophthalmic ointments for the treatment of glaucoma, comprising ergot alkaloids” (LEK, tovarna farmacevtskih in kemicnih izdelkov, n.sol.o., priority 1988, dated 1989)
